In patent US20150073033A1, “BIOMARKERS FOR CANCER CHARACTERIZATION AND TREATMENT” (Board of Regents, The University of Texas System, priority 2011, published 2015):
“Also recorded” adds a separate entry of the source.

Experiments:
IKKβ = biological target: T1, IKKβ (Homo sapiens, UniProt O14920); conditions: small molecules IKKβ inhibitors; values from the cited references; read-out: IC50 (half maximal inhibitory concentration); cited from earlier work
T1 sequence (O14920 1-756): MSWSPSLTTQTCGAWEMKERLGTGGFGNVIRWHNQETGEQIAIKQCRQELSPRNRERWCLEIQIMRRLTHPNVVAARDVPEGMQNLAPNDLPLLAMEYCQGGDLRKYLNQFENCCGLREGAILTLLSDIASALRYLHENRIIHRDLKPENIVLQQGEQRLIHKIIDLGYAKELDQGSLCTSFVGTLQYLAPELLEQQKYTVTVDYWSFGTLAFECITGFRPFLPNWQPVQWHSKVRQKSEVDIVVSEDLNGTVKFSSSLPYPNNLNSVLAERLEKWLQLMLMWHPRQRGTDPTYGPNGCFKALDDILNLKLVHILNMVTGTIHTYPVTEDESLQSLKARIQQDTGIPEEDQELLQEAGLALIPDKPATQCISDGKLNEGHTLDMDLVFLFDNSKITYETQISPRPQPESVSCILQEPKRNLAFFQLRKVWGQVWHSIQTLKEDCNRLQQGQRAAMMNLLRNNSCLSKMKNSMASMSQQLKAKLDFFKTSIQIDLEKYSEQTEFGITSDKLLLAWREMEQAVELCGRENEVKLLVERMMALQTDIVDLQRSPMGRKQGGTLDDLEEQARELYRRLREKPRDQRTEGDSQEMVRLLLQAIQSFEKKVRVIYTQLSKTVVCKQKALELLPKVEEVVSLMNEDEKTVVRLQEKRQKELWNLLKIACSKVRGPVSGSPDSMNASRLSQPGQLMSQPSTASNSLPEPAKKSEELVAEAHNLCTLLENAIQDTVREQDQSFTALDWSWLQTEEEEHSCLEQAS

PKM2 = assay: EGF-induced nuclear translocation of PKM2 (cell fractionation, immunoblotting, immunofluorescence); assay type: cell-based, human; conditions: U87/EGFR (and U251) cells; 30 min pretreatment before EGF 100 ng/mL; LY290042 30 μM, SU6656 4 μM, SP600125 25 μM, U0126 20 μM, AG1478 1 μM, cycloheximide 100 μg/mL
Protocol: Immunoblotting analyses (b, b) were performed with the indicated antibodies. Nuclear PCNA and cytoplasmic tubulin were used as controls. a: The indicated cells were immunostained with an anti-PKM2 antibody.
Immunoblotting and immunoprecipitation analyses were performed with the indicated antibodies. a: Nuclear fractions were prepared from U87/EGFR cells pretreated with LY290042 (30 μM), SU6656 (4 μM), SP600125 (25 μM), and U0126 (20 μM) for 30 min before EGF (100 ng/mL) for 6 h. Nuclear PCNA and cytoplasmic tubulin were used as controls. b: U87/EGFR cells were pretreated with or without U0126 (20 μM) for 30 min before EGF (100 ng/mL) for 6 h. Immunofluorescence analyses were performed with the indicated antibodies. Nuclei were stained with Hoechst 33342 (blue). c: U251 cells were stably transfected with a vector with or without expressing FLAG-ERK2 K52R (left panel) or transiently transfected with vectors expressing MEK1 Q56P and indicated FLAG-tagged ERK2 proteins (right panel). The cells were treated with or without EGF (100 ng/mL) for 6 h, and the total cell lysates and nuclear fractions were prepared. d: FLAG-PKM2 or FLAG-PKM1 was immunoprecipitated with an anti-FLAG antibody from U87/EGFR cells treated with or without EGF (100 ng/mL) for 30 min. e: Bacterially-purified GST-ERK2 immobilized on glutathione agarose beads was mixed with or without purified His-PKM2. GST pull-down analyses were performed. Ten percent of total His-PKM2 was used as an input. f: U87/EGFR cells transfected with vectors expressing the indicated FLAG-tagged ERK proteins were treated with or without EGF (100 ng/mL) for 30 min. g: U87/EGFR cells expressing the indicated FLAG-PKM2 proteins were treated with or without EGF (100 ng/mL) for 30 min.
(§1) Immunofluorescence analyses of endogenous PKM2 or transiently expressed FLAG-PKM1 were performed with the indicated antibodies. […] Immunoblotting analyses were performed with the indicated antibodies. Nuclear PCNA was used as controls for immunoblotting analyses. c: An equal volume of cytosolic and nuclear fractions were prepared from U87/EGFR cells treated with or without EGF (100 ng/mL) for 6 h. Ten microliters of protein from cytosolic and nuclear fractions were used for immunoblotting analyses with the indicated antibodies. d: Nuclear fractions were prepared from U251 cells pretreated with LY290042 (30 μM), SU6656 (4 μM), SP600125 (25 μM), and U0126 (20 μM) for 30 min before EGF (100 ng/mL) for 6 h. Immunoblotting analyses were performed with the indicated antibodies. Nuclear PCNA and cytoplasmic tubulin were used as controls. e: U87/EGFR cells were pretreated with LY290042 (30 μM), SU6656 (4 μM), SP600125 (25 μM), and U0126 (20 μM) for 30 min before EGF (100 ng/mL) for 6 h. Immunoblotting analyses were performed with the indicated antibodies.
Cytosolic and nuclear fractions were prepared. Immunoblotting analyses were performed with the indicated antibodies. b: U87/EGFR cells with depleted endogenous PKM2 and reconstituted expression of RNAi-resistant WT rPKM2 or rPKM2 S37A were treated with or without EGF (100 ng/mL) for 6 h. Total cell lysates (left panel) and nuclear fractions (right panel) were prepared.

PKM2 expression = assay: EGF-induced PKM2 upregulation, immunoblotting; assay type: cell-based, human; conditions: U87/EGFR cells; pretreatment before EGF 100 ng/mL 12 h; AG1478 1 μM, cycloheximide 200 μg/mL, Bis-I 2 μM, Go6976 2 μM, NF-κB activation inhibitor II 7 μM, AKT inhibitor 10 μM, TBB 50 μM, U73122 2 μM
Protocol: FIG. 56: EGFR activation results in upregulation of PKM2 expression. A-D: Immunoblotting analyses were performed with or without the indicated antibodies. A: The indicated cell lines were treated with EGF (100 ng/mL) for 12 h. B: U87 cells were stably transfected with plasmids expressing EGFR or EGFRvIII. […] D: U87/EGFR cells were pretreated with or without cycloheximide (CHX) (200 μg/mL) for 30 min before EGF (100 ng/mL) treatment for 12 h. […] The relative mRNA levels of PKM2 and PKM1 were normalized to the levels of untreated cells and β-actin mRNA. Data represent the mean±SD of three independent experiments.
FIG. 57: EGF increases PKM2 expression in a PKC- and NF-κB-dependent manner. A-D, H: Immunoblotting analyses were performed with the indicated antibodies. […] ChIP assay was performed with an anti-RelA antibody for immunoprecipitation, followed by PCR with PKM promoter-specific primers. F: An oligonucleotide containing the putative WT or mutated NF-κB binding sequence was labeled using [γ-^32P] ATP and T4 polynucleotide kinase. […] Samples were subjected to 5% polyacrylamide gel electrophoresis, and the dried gel was exposed to x-ray film. […] The relative levels of luciferase activity were normalized to the levels of untreated cells and to the levels of luciferase activity of the Renilla control plasmid. Data represent the mean±standard deviation of three independent experiments.
FIG. 58: PKCε downstream from PLCγ1, rather than TAK1, activates IKKβ and subsequently increases PKM2 expression. […] B: U87/EGFR cells were treated with TNFα (10 ng/mL) for the indicated time. C: U87/EGFR cells were treated with or without EGF (100 ng/mL) or TNFα (10 ng/mL) for 4 h. […] HIF1α was immunodepleted from the cell lysates by incubation with an anti-HIF1α antibody, which was followed by a ChIP assay with an anti-FLAG antibody for immunoprecipitation of FLAG-RelA and PCR analysis with PKM promoter-specific primers. […] F: 293T cells were transiently transfected with constitutively active (+) or kinase-dead (−) PKC mutants. […] H, I: 293T cells were transiently transfected with the indicated plasmids.

U87/EGFRvIII cells = assay: Intracranial U87/EGFRvIII xenograft, intratumoral SU6656; assay type: in vivo, athymic nude mice
Protocol: FIG. 19: c-Src inhibition suppresses tumorigenesis and reduces β-catenin Y333 phosphorylation and cyclin D1 expression in tumor tissues. a: U87/EGFRvIII (5×10^5) cells were intracranially injected into athymic nude mice. After 5 d, seven mice were sacrificed to examine tumor growth; the remaining mice, whose tumors were intracranially injected with SU6656 (0.015 mg/kg in 5 μL of DMSO) or DMSO every three days, were sacrificed at day 15. […] C: Immunoblotting analyses of the indicated tumor tissues were performed with the indicated antibodies.
GBM cells (5×10^5) were intracranially injected (in 5 μL of DMEM per mouse), with or without regulation of β-catenin or PKM2 expression, into 4-week-old female athymic nude mice. The intracranial injections were performed, as described in a previous publication (Gomez-Manzano et al., 2006). Seven mice per group in each experiment were included. Animals injected with U87/EGFRvIII or GSC 11 cells were sacrificed 2 weeks or 30 days after glioma cell injection, respectively. The brain of each mouse was harvested, fixed in 4% formaldehyde, and embedded in paraffin. Tumor formation and phenotype were determined by histologic analysis of H & E-stained sections.
For doxycycline induction studies, seven mice were sacrificed 14 days after GBM cell injection to examine tumor growth, whereas the remaining 14 mice in two groups were fed with or without water containing 800 μg/mL doxycycline. The water containing doxycycline was changed every three days. The mice in these two groups were sacrificed at day 30. For the SU6656 treatment studies, seven mice were sacrificed five days after U87/EGFRvIII cell injection to examine tumor growth, whereas the remaining 14 mice in two groups were treated with either DMSO or SU6656. SU6656 (0.015 mg/kg in 5 μL of DMSO) was intracranially injected into the tumor every three days, and the mice in both groups were sacrificed at day 14 after GBM cell injection.

β-catenin = assay: EGF-induced β-catenin Tyr/Y333 phosphorylation, immunoprecipitation and immunoblotting; assay type: cell-based, human
Protocol: FIG. 2: c-Src phosphorylates β-catenin at Y333 upon EGFR activation. a: U87/EGFR cells were treated with SU6656 (4 μM) or an Abl inhibitor (0.2 μM) for 30 min before EGF treatment for 6 h. b: The indicated cells were treated with or without EGF for 6 h. c: β-catenin was immunoprecipitated from the nuclear fractions of U87/EGFR cells treated with or without EGF for 6 h. d, g: U87/EGFR cells transiently expressing the indicated FLAG-tagged β-catenin proteins were treated with or without EGF for 6 h. e: In vitro kinase assays were performed with purified active c-Src and purified β-catenin proteins. f: Immobilized GST-β-catenin proteins were mixed with purified His-PKM2 proteins in the presence or absence of active c-Src.
(§2) FIG. 16: EGF induces the nuclear translocation of PKM2, c-Src-dependent […] Y333 phosphorylation, and a c-Src-dependent interaction between PKM2 and β-catenin in primary GBM cells. […] Nuclear PCNA and cytoplasmic tubulin were used as controls.

[1] = test system: PKM2-β-catenin interaction; assay: EGF-induced association of β-catenin with PKM2 in primary GBM cells (co-IP); assay type: cell-based; conditions: GSC11 and GSC23 human primary GBM cells; SU6656 4 μM 30 min before EGF 100 ng/mL 6 h
Excerpt: as §2

c-Src = c-Src (Homo sapiens, UniProt P12931); assay: EGF-induced c-Src activation (Y418 phosphorylation), immunoblotting; assay type: cell-based; conditions: U87/EGFR cells; SU6656 4 μM 30 min before EGF 100 ng/mL 6 h
Sequence of c-Src (P12931 whole entry): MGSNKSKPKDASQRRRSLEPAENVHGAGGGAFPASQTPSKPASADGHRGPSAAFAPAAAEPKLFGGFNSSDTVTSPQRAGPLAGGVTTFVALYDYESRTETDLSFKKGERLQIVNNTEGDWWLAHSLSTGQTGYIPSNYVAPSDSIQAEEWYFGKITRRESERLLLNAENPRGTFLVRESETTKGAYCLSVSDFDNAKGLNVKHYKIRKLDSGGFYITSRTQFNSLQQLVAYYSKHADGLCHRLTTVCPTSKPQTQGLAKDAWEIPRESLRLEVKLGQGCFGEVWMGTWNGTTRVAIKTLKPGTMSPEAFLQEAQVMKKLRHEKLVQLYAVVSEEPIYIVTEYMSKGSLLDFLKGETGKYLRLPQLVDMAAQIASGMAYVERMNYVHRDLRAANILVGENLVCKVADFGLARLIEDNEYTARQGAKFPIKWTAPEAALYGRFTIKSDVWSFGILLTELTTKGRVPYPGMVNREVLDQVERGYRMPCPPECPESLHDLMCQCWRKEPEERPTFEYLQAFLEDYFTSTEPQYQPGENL
Protocol: as §1
(§3) Extraction of proteins with a modified buffer from cultured cells was followed by immunoprecipitation and immunoblotting with corresponding antibodies, as described previously (Lu et al., 1998).

ERK1/2 = assay: EGF-induced ERK1/2 phosphorylation, immunoblotting; assay type: cell-based, human; conditions: U87/EGFR cells; AG1478 1 μM or U0126 20 μM 30 min before EGF 6 h
Protocol: as §1, §3

[2] = SU6656 0.015 mg/kg intratumoral every three days

## O=C(Nc1cc(Cl)cc2c1[nH]c1cnccc12)c1cccnc1 [PS1145]
IKKβ
  IC50: 88 nM

## O=C(Nc1cc(C(F)(F)F)cc(C(F)(F)F)c1)c1cc(Cl)ccc1O [IMD-0354]
IKKβ
  IC50: 280 to 3000 nM

## O=C(N/N=C/c1ccc([N+](=O)[O-])cc1)c1ccc2ccccc2c1 [LASSBio-1524]
IKKβ
  IC50: 20000 nM

## C[C@@H]1C[C@@H]([C@H](O)CC2CC(=O)NC(=O)C2)C(=O)[C@@H](C)C1 [cycloheximide]
PKM2
  EGF-induced nuclear accumulation/translocation of PKM2: did not inhibit
PKM2 expression
  EGF-induced PKM2 upregulation/expression: inhibited

## Cc1cc(N)ccc1N=Nc1ccc(S(=O)(=O)CCOS(=O)(=O)O)cc1 [NSC 676914]
IKKβ
  IC50: 17000 nM

## CN(C)S(=O)(=O)c1ccc2c(c1)/C(=C/c1cc3c([nH]1)CCCC3)C(=O)N2 [SU6656]
U87/EGFRvIII cells; SU6656 0.015 mg/kg in 5 μL DMSO intratumoral every three days vs DMSO
  tumor growth: significantly blocked tumor growth
U87/EGFRvIII cells; [2]
  cyclin D1 expression in tumor tissue: inhibited
  phosphorylation level of c-Src Y418 in tumor tissue: reduced
  phosphorylation level of β-catenin Y333 in tumor tissue: reduced
PKM2
  EGF-induced nuclear accumulation/translocation of PKM2: only inhibition of MEK/ERK abrogated
β-catenin; GSC11 and GSC23 human primary GBM cells, SU6656 4 μM 30 min before EGF 100 ng/mL 6 h
  EGF-induced phosphorylation of β-catenin Y333: blocked
β-catenin; U87/EGFR cells, SU6656 4 μM or Abl inhibitor 0.2 μM 30 min before EGF 6 h
  EGF-induced Tyr phosphorylation of β-catenin: blocked
[1]
  EGF-induced association of β-catenin with PKM2: blocked
c-Src
  EGF-induced activation/phosphorylation of c-Src (Y418): completely abrogated; also recorded: blocked

## C[C@]1(CO)CN(c2cc(C(=O)Nc3ccc4c(c3)-c3c(c(C(N)=O)nn3-c3ccc(F)cc3)CC4)c(Cl)cn2)C[C@@]1(C)CO [PF-184]
IKKβ
  IC50: 37 nM

## COc1cc2ncnc(Nc3cccc(Cl)c3)c2cc1OC [AG1478]
PKM2
  EGF-induced nuclear accumulation/translocation of PKM2: abrogated
ERK1/2
  EGF-induced phosphorylation of ERK1/2: blocked
PKM2 expression
  EGF-induced PKM2 upregulation/expression: blocked; also recorded: abrogated
